Measurements reported in BindingDB's records for doi:10.1111/j.1476-5381.1981.tb10994.x (Royal Postgraduate Medical School, 1981).
Several values for one entry are separate records, joined by “and”; a condition that tells them apart may be missing. Equal values may be shown once.

target: Prostacyclin receptor (Homo sapiens, UniProt P43119)
Sequence (P43119 whole entry): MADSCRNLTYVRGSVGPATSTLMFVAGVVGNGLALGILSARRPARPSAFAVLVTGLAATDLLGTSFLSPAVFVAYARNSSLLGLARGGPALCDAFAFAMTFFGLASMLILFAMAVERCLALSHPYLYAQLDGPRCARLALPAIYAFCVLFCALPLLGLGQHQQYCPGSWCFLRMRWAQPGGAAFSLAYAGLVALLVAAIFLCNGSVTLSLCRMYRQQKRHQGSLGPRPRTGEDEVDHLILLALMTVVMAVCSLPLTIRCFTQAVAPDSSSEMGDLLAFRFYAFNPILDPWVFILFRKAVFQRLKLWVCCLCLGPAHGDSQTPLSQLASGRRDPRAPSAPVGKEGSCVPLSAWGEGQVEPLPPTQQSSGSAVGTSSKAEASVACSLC

Row | Compound | Ki
1 | CCCCC[C@@H](O)/C=C/[C@H]1[C@H](O)CC(=O)[C@@H]1C/C=C\CCCC(=O)O | > 10 µM
2 | CCCCC[C@@H](O)/C=C/[C@H]1[C@H](O)CC(=O)[C@@H]1CCCCCCC(=O)O | 0.137 µM
3 | CCCCC[C@H](O)/C=C/C1[C@H](O)CC(=O)[C@H]1CCCCCCC(=O)O (stereo partly drawn) [8-ISO PROSTAGLANDIN E1] | 0.735 µM
4 | CCCCCC(=O)CC[C@H]1[C@H](O)CC(=O)[C@@H]1C/C=C\CCCC(=O)O [13,14-DIHYDRO-15-KETO PROSTAGLANDIN E2] | 8.41 µM and > 10 µM
5 | O=C(O)CCC/C=C\C[C@H]1C(=O)C[C@@H](O)[C@@H]1/C=C/[C@@H](O)CCc1ccccc1 [17-PHENYL TRINOR PROSTAGLANDIN E2] | 4.37 µM
6 | CCCCC[C@H](O)/C=C/[C@H]1[C@H](O)CC(=O)[C@@H]1C/C=C/CCCC(=O)O [(E)-7-((1R,2R,3R)-3-hydroxy-2-((S,E)-3-hydroxyoct-1-enyl)-5-oxocyclopentyl)hept-5-enoic acid] | 0.735 µM
7 | CCCCC[C@H](O)CC[C@H]1[C@H](O)CC(=O)[C@@H]1CCCCCCC(=O)O [CAS_19313-28-1] | 0.315 µM

The remaining lines, values ahead:

Row | Ki | Compound
8 | 0.0166 µM | CCCCC[C@H](O)/C=C/[C@@H]1[C@H]2C/C(=C\CCCC(=O)O)C[C@H]2C[C@H]1O
9 | > 10 µM | CCCCC[C@H](O)/C=C/[C@@H]1[C@@H](CC(=O)CCC(=O)O)[C@@H](O)C[C@H]1O [2,3-dinor-6-ketoprostaglandin F1alpha]
10 | > 10 µM | CCCCC[C@H](O)/C=C/C1[C@H](O)C[C@H](O)[C@@H]1C/C=C\CCCC(=O)O (stereo partly drawn) [(Z)-7-[(1R,3R,5S)-3,5-Dihydroxy-2-((E)-(S)-3-hydroxy-oct-1-enyl)-cyclopentyl]-hept-5-enoic acid]
11 | 7.35 µM | CCCCCC(O)C=CC1C(O)CC2OC(CCCCC(=O)O)CC21 (stereo not drawn) [CAS_162981]
12 | > 10 µM | CCCCC[C@H](O)/C=C/[C@H]1[C@H](O)CC(=O)[C@@H]1C/C=C\CCCC(=O)O [DINOPROSTONE]
13 | > 10 µM | CCCCCC(O)C=CC1C(O)CC(O)C1CCCCCCC(=O)O (stereo not drawn) [NSC_5280939]
